Measurements as given in patent US9695155B2, “Herbicidal substituted pyrimidinyloxy benzene compounds” (E. I. DU PONT DE NEMOURS AND COMPANY, priority 2013, dated 2017).

What was measured:
Test in all cases: Test C preemergence
[1] = system: pigweed; format: in vivo, Amaranthus retroflexus; conditions: for Pigweed plant response rating: preemergence; for Plant response rating, Pigweed: Preemergence, scale 0 to 100, 0 no effect, 100 complete control
Source text: (§1) Seeds of plant species selected from blackgrass (Alopecurus myosuroides), Italian ryegrass (Lolium multiflorum), wheat, winter (winter wheat, Triticum aestivum), galium (catchweed bedstraw, Galium aparine), corn (Zea mays), large (Lg) crabgrass (Digitaria sanguinalis), giant foxtail (Setaria faberii), johnsongrass (Sorghum halepense), lambsquarters (Chenopodium album), morningglory (Ipomoea coccinea), yellow nutsedge (Cyperus esculentus), pigweed (Amaranthus retroflexus), ragweed (common ragweed, Ambrosia elatior), soybean (Glycine max), barnyardgrass (Echinochloa crus-galli), oilseed rape (Brassica napus), waterhemp (common waterhemp, Amaranthus rudis), kochia (Kochia scoparia), wild oat (Avena fatua), surinam grass (Brachiaria decumbens), foxtail, green (green foxtail, Setaria viridis), goosegrass (Eleusine indica), bromegrass, downy (downy bromegrass, Bromus tectorum), nightshade (eastern black nightshade, Solanum ptycanthum), cocklebur (common cocklebur, Xanthium strumarium), cupgrass, woolly (woolly cupgrass, Eriochloa villosa), bermudagrass (Cynodon dactylon), sunflower, (common oilseed sunflower, Helianthus annuus), Russian thistle (Salsola kali), and velvetleaf (Abutilon theophrasti) were planted into a blend of loam soil and sand and treated preemergence with test chemicals formulated in a non-phytotoxic solvent mixture which included a surfactant.
(§2) At the same time, plants selected from these crop and weed species and also barley, winter (winter barley, Hordeum vulgare), windgrass (Apera spica-venti), chickweed (common chickweed, Stellaria media), deadnettle (henbit deadnettle, Lamium amplexicaule), and canarygrass (littleseed canarygrass, Phalaris minor) were planted in pots containing Redi-Earth® planting medium (Scotts Company, 14111 Scottslawn Road, Marysville, Ohio 43041) comprising spaghnum peat moss, vermiculite, wetting agent and starter nutrients and treated with postemergence applications of test chemicals formulated in the same manner. Plants ranged in height from 2 to 18 cm (1- to 4-leaf stage) for postemergence treatments. Treated plants and controls were maintained in a greenhouse for 13 to 15 days, after which time all species were compared to controls and visually evaluated. Plant response ratings, summarized in Table C, are based on a scale of 0 to 100 where 0 is no effect and 100 is complete control. A dash (-) response means no test result.

[2] = system: lambsquarters; format: in vivo, Chenopodium album; conditions: for Lambsquarters plant response rating: preemergence; for Plant response rating, Lambsquarters: Preemergence, scale 0 to 100, 0 no effect, 100 complete control
Source text: as §1, §2

[3] = system: corn; format: in vivo, Zea mays; conditions: for Corn plant response rating: preemergence; for Plant response rating, Corn: Preemergence, scale 0 to 100, 0 no effect, 100 complete control
Source text: as §1, §2

[4] = system: large (Lg) crabgrass; format: in vivo, Digitaria sanguinalis; conditions: for Crabgrass, Large plant response rating: preemergence; for Plant response rating, Crabgrass, Large: Preemergence, scale 0 to 100, 0 no effect, 100 complete control
Source text: as §1, §2

[5] = system: giant foxtail; format: in vivo, Setaria faberii; conditions: for Foxtail, Giant plant response rating: preemergence; for Plant response rating, Foxtail, Giant: Preemergence, scale 0 to 100, 0 no effect, 100 complete control
Source text: as §1, §2

[6] = system: galium; format: in vivo, Galium aparine; conditions: for Galium plant response rating: preemergence; for Plant response rating, Galium: Preemergence, scale 0 to 100, 0 no effect, 100 complete control
Source text: as §1, §2

[7] = system: wheat, winter; format: in vivo, Triticum aestivum; conditions: for Wheat plant response rating: preemergence; for Plant response rating, Wheat: Preemergence, scale 0 to 100, 0 no effect, 100 complete control
Source text: as §1, §2

[8] = system: velvetleaf; format: in vivo, Abutilon theophrasti; conditions: for Velvetleaf plant response rating: preemergence; for Plant response rating, Velvetleaf: Preemergence, scale 0 to 100, 0 no effect, 100 complete control
Source text: as §1, §2

[9] = system: waterhemp; format: in vivo, Amaranthus rudis; conditions: for Waterhemp plant response rating: preemergence; for Plant response rating, Waterhemp: Preemergence, scale 0 to 100, 0 no effect, 100 complete control
Source text: as §1, §2

[10] = 16 g ai/ha, scale 0 to 100 (0 no effect, 100 complete control)
[11] = 62 g ai/ha, scale 0 (no effect) to 100 (complete control)
[12] = 125 g ai/ha, scale 0 (no effect) to 100 (complete control)
[13] = 250 g ai/ha, scale 0 (no effect) to 100 (complete control)

| Compound | Pigweed plant response rating [1, 10] | Pigweed plant response rating [1, 11] | Pigweed plant response rating [1, 12] | Lambsquarters plant response rating [2, 10] | Lambsquarters plant response rating [2, 11] | Lambsquarters plant response rating [2, 12] | Corn plant response rating [3, 10] | Corn plant response rating [3, 11] | Corn plant response rating [3, 12] | Plant response rating, Corn ([3]; 31 g ai/ha) | Crabgrass, Large plant response rating [4, 10] | Crabgrass, Large plant response rating [4, 11] | Crabgrass, Large plant response rating [4, 12] | Plant response rating, Crabgrass, Large ([4]; 31 g ai/ha) | Foxtail, Giant plant response rating [5, 10] | Foxtail, Giant plant response rating [5, 12] | Galium plant response rating [6, 12] | Wheat plant response rating [7, 12] | Velvetleaf plant response rating [8, 12] | Waterhemp plant response rating [9, 12] | also measured |
| --- | --- | --- | --- | --- | --- | --- | --- | --- | --- | --- | --- | --- | --- | --- | --- | --- | --- | --- | --- | --- | --- |
| Fc1cnc(Oc2cccc(C(F)F)c2-n2cc(C(F)(F)F)cn2)nc1 [Compound 164] | 98 | 100 | 98 | 70 | 100 | 98 | 0 | 5 | 45 | 5 | 75 | 100 | 100 | 85 | 40 | 100 | 95 | 35 | 100 | 100 | Foxtail, Giant plant response rating [5, 11]: 100; Plant response rating, Foxtail, Giant ([5]; 31 g ai/ha): 95; Galium plant response rating [6, 10]: 75; Galium plant response rating [6, 11]: 95; Plant response rating, Galium ([6]; 31 g ai/ha): 100; Wheat plant response rating [7, 10]: 0; Wheat plant response rating [7, 11]: 30; Velvetleaf plant response rating [8, 10]: 50; Velvetleaf plant response rating [8, 11]: 100; Waterhemp plant response rating [9, 10]: 85; Waterhemp plant response rating [9, 11]: 100 |
| Fc1cnc(Oc2cccc(C(F)F)c2-n2cc(Cl)cn2)nc1 [Compound 94] | 90 | 100 | 100 | 40 | 100 | 100 | 5 | 5 | 55 | 5 | 25 | 100 | 100 | 98 | 5 | 100 | 100 | 5 | 100 | 100 | Plant response rating, Pigweed ([1]; 31 g ai/ha): 100; Plant response rating, Lambsquarters ([2]; 31 g ai/ha): 85; Foxtail, Giant plant response rating [5, 11]: 100; Plant response rating, Foxtail, Giant ([5]; 31 g ai/ha): 65; Galium plant response rating [6, 10]: 80; Galium plant response rating [6, 11]: 98; Plant response rating, Galium ([6]; 31 g ai/ha): 98; Wheat plant response rating [7, 10]: 0; Wheat plant response rating [7, 11]: 0; Plant response rating, Wheat ([7]; 31 g ai/ha): 0; Velvetleaf plant response rating [8, 10]: 40; Velvetleaf plant response rating [8, 11]: 100; Plant response rating, Velvetleaf ([8]; 31 g ai/ha): 100; Waterhemp plant response rating [9, 10]: 80; Waterhemp plant response rating [9, 11]: 100; Plant response rating, Waterhemp ([9]; 31 g ai/ha): 100 |
| N#Cc1cnn(-c2c(C#N)cccc2Oc2ncc(Cl)cn2)c1 [Compound 200] |  |  | 100 |  |  | 98 |  |  | 60 |  |  |  | 100 |  |  | 100 | 100 | 90 | 100 | 100 | Pigweed plant response rating [1, 13]: 100; Plant response rating, Pigweed ([1]; 62 g ai/ha): 100; Lambsquarters plant response rating [2, 13]: 98; Plant response rating, Lambsquarters ([2]; 62 g ai/ha): 98; Corn plant response rating [3, 13]: 75; Plant response rating, Corn ([3]; 62 g ai/ha): 5; Crabgrass, Large plant response rating [4, 13]: 100; Plant response rating, Crabgrass, Large ([4]; 62 g ai/ha): 100; Foxtail, Giant plant response rating [5, 13]: 100; Plant response rating, Foxtail, Giant ([5]; 62 g ai/ha): 100; Galium plant response rating [6, 13]: 100; Plant response rating, Galium ([6]; 62 g ai/ha): 100; Wheat plant response rating [7, 13]: 95; Plant response rating, Wheat ([7]; 62 g ai/ha): 65; Velvetleaf plant response rating [8, 13]: 100; Plant response rating, Velvetleaf ([8]; 62 g ai/ha): 100; Waterhemp plant response rating [9, 13]: 100; Plant response rating, Waterhemp ([9]; 62 g ai/ha): 100 |
